Literature values in PubChem BioAssay AID1259409 (Chemical Carcinogenesis Research Information System (CCRIS), 2018).

System: rodent chemically induced tumor inhibition, incidence and multiplicity
Test: CCRIS tumor inhibitor studies
Details: Carcinogen: N-METHYL-N-NITROSOUREA, 684-93-5, Route [Inhibitor]: ORAL, Promoter: NONE USED

## CC1=C(/C=C/C(C)=C/C=C/C(C)=C\C(=O)O)C(C)(C)CCC1
Dose [Inhibitor]: 25 MG/KG DAILY IN DIET STARTING 1 D AFTER LAST CARCINOGEN INJECTION AND CONTINUING FOR 256 D (STUDY DURATION: 285 D), Species: RAT, Strain/Sex: WISTAR-LEWIS/FEMALE, Target Tissue: Type of Lesion: URINARY BLADDER: PAPILLARY UROTHELIAL TUMOR, Dose [Carcinogen]: 1.5 MG IN 0.15 ML SALINE INJECTED INTO A SURGICALLY EXPOSED BLADDER 1/2 WK FOR A TOTAL OF 3 INJECTIONS
  tumour outcome (control, treated, inhibition, significance): 8/30 (27%), 2/23 (9%), 67%, p<0.05
Dose [Inhibitor]: 120 MG/KG DIET DAILY STARTING 1 WK AFTER LAST CARCINOGEN TREATMENT AND CONTINUING FOR 6 MO (STUDY DURATION: 9 MO), Species: HAMSTER, Strain/Sex: SYRIAN/MALE, Target Tissue: Type of Lesion: TRACHEA: BENIGN EPITHELIAL NEOPLASM, Dose [Carcinogen]: 0.5% IN 1 ML PHOSPHATE-BUFFERED SALINE 1/WK FOR 12 WK
  tumour outcome (control, treated, inhibition, significance): 6/63 (10%), 13/61 (21%), -110%, not significant
Dose [Inhibitor]: 120 MG/KG DIET DAILY STARTING 1 WK AFTER LAST CARCINOGEN TREATMENT AND CONTINUING FOR 6 MO (STUDY DURATION: 9 MO), Species: HAMSTER, Strain/Sex: SYRIAN/MALE, Target Tissue: Type of Lesion: TRACHEA: CARCINOMA, Dose [Carcinogen]: 0.5% IN 1 ML PHOSPHATE-BUFFERED SALINE 1/WK FOR 12 WK
  tumour outcome (control, treated, inhibition, significance): 4/63 (6%), 12/61 (20%), -233%, p<0.05
Dose [Inhibitor]: 120 MG/KG DIET DAILY STARTING 1 WK AFTER LAST CARCINOGEN TREATMENT AND CONTINUING FOR 6 MO (STUDY DURATION: 9 MO), Species: HAMSTER, Strain/Sex: SYRIAN/MALE, Target Tissue: Type of Lesion: TRACHEA: EPITHELIAL NEOPLASM, Dose [Carcinogen]: 0.5% IN 1 ML PHOSPHATE-BUFFERED SALINE 1/WK FOR 12 WK
  tumour outcome (control, treated, inhibition, significance): 10/63 (16%), 22/61 (36%), -125%, p<0.05
Dose [Inhibitor]: 120 MG/KG IN DIET DAILY FOR 6 MO STARTING 1 WK AFTER FINAL CARCINOGEN DOSE (STUDY DURATION: 9 MO), Species: HAMSTER, Strain/Sex: SYRIAN/MALE, Target Tissue: Type of Lesion: TRACHEA: BENIGN EPITHELIAL NEOPLASM, Dose [Carcinogen]: 0.5% SOLUTION FOR 5 SECOND EXPOSURE 1/WK FOR 12 WK
  tumour outcome (control, treated, inhibition, significance): 6/63 (10%), 13/61 (21%), -110%, not significant
Dose [Inhibitor]: 120 MG/KG IN DIET DAILY FOR 6 MO STARTING 1 WK AFTER FINAL CARCINOGEN DOSE (STUDY DURATION: 9 MO), Species: HAMSTER, Strain/Sex: SYRIAN/MALE, Target Tissue: Type of Lesion: TRACHEA: EPITHELIAL NEOPLASM, Dose [Carcinogen]: 0.5% SOLUTION FOR 5 SECOND EXPOSURE 1/WK FOR 12 WK
  tumour outcome (control, treated, inhibition, significance): 10/63 (16%), 22/61 (36%), -125%, p<0.05
Dose [Inhibitor]: 120 OR 300 MG/KG DIET DAILY STARTING ON THE DAY OF THE FIRST INSTILLATION OF CARCINOGEN OR 1 D AFTER THE LAST CARCINOGEN, Species: RAT, Strain/Sex: WISTAR-LEWIS/FEMALE, Target Tissue: Type of Lesion: URINARY BLADDER: CARCINOMA, Dose [Carcinogen]: 1.5 MG IN 0.15 ML OF 0.9% NACL SOLUTION INSTILLED DIRECTLY INTO THE URINARY BLADDER 1/2 WK FOR A TOTAL OF 3 DOSES
  tumour outcome (control, treated, inhibition, significance): 10/23 (43%), 27/87 (31%), 28%, p 0.11
Dose [Inhibitor]: 120 OR 300 MG/KG DIET DAILY STARTING ON THE DAY OF THE FIRST INSTILLATION OF CARCINOGEN OR 1 D AFTER THE LAST CARCINOGEN, Species: RAT, Strain/Sex: WISTAR-LEWIS/FEMALE, Target Tissue: Type of Lesion: URINARY BLADDER: NEOPLASM, Dose [Carcinogen]: 1.5 MG IN 0.15 ML OF 0.9% NACL SOLUTION INSTILLED DIRECTLY INTO THE URINARY BLADDER 1/2 WK FOR A TOTAL OF 3 DOSES
  tumour outcome (control, treated, inhibition, significance): 13/23 (57%), 35/87 (40%), 30%, p 0.08
Dose [Inhibitor]: 120 OR 300 MG/KG DIET DAILY STARTING ON THE DAY OF THE FIRST INSTILLATION OF CARCINOGEN OR 1 D AFTER THE LAST CARCINOGEN, Species: RAT, Strain/Sex: WISTAR-LEWIS/FEMALE, Target Tissue: Type of Lesion: URINARY BLADDER: SQUAMOUS CELL CARCINOMA, Dose [Carcinogen]: 1.5 MG IN 0.15 ML OF 0.9% NACL SOLUTION INSTILLED DIRECTLY INTO THE URINARY BLADDER 1/2 WK FOR A TOTAL OF 3 DOSES
  tumour outcome (control, treated, inhibition, significance): 4/23 (17%), 8/87 (9%), 47%, p 0.11
Dose [Inhibitor]: 120 OR 300 MG/KG DIET DAILY STARTING ON THE DAY OF THE FIRST INSTILLATION OF CARCINOGEN OR 1 D AFTER THE LAST CARCINOGEN, Species: RAT, Strain/Sex: WISTAR-LEWIS/FEMALE, Target Tissue: Type of Lesion: URINARY BLADDER: TRANSITIONAL CELL CARCINOMA, Dose [Carcinogen]: 1.5 MG IN 0.15 ML OF 0.9% NACL SOLUTION INSTILLED DIRECTLY INTO THE URINARY BLADDER 1/2 WK FOR A TOTAL OF 3 DOSES
  tumour outcome (control, treated, inhibition, significance): 7/23 (30%), 23/87 (26%), 13%, p 0.23
